Assay results reported in BindingDB's records for doi:10.1021/jm300576q (Georgetown University Medical Center, 2012).

Experiment: Inhibition of VEGFR2-mediated angiogenesis in human HUVEC cells after 24 hrs by inverted photomicroscopic analysis

IC50: 8.8 µM
Structure (SMILES): COC(=O)Nc1nc2ccc(C(=O)c3ccccc3)cc2[nH]1 [methyl (5-benzoyl-1H-benzimidazol-2-yl)carbamate]
